Values of other authors as cited in US8535699B2, “Insect-repelling resin composition and extended-release insect-repelling resin molded product obtained therefrom” (Sumika Life Tech, Limited, priority 2009, dated 2013).

Conditions: at 20° C.

**Q.** Which Vapour pressure does the source give for `CC(C)=CC1C(C(=O)OCc2cccc(Oc3ccccc3)c2)C1(C)C` (centres unmarked) [Phenothrin] here?
**A.** Its Vapour pressure is 1.2×10^−6 mmHg.

**Q.** With `CCOP(=O)(OCC)OCC` [Triethyl phosphate] as the compound, how does the Vapour pressure read?
**A.** Its Vapour pressure is 0.3 mmHg.
